Results taken from patent US20230183643A1, “COMPOSITIONS AND METHODS FOR PRODUCING PLACENTAL CELLS” (Regents of the University of Minnesota, priority 2021, published 2023).
“Also recorded” adds a separate entry of the source.

What was measured:
Type in all cases: cell-based, human
IMR-90-4 hiPSCs [1] = test: PCR and qRT-PCR of trophoblast cell marker transcripts and C19 miRNAs; details: for CDX2 transcript level (qRT-PCR) / GATA3 transcript level (qRT-PCR) / KLF4 transcript level (qRT-PCR) / KRT7 transcript level (qRT-PCR): 5 days of incubation, compared to UM alone (FIG. 10); for CDX2 mRNA transcript level (PCR / RT-PCR): after 5 days in UM with 1 μM RA, 8 μM CHIR, RA+CHIR or 1 μM SU6656
Method: For differentiation, 70% confluent stem cells were rinsed with DPBS (Gibco) and pre-warmed Accutase was added to the wells. Cells were then placed at 37° C. for 5-7 minutes. Following incubation, cells were removed from the well with a p1000 pipette. The cells in Accutase solution were then added to a conical tube containing an equal volume of fresh media and spun down at 200×g for 5 minutes. The cells were then resuspended and seeded on Matrigel-coated plates at 6,000 cells/cm^2 in TeSR-E8 or mTeSR Plus with 5 μM ROCK inhibitor (Y-27632, Stem Cell Tech). Cells were maintained in E8 or mTeSR Plus for two more days, and then the medium was changed to unconditioned medium (UM): […] RA and/or CHIR were excluded in control experiments (FIG. 1), as described. Cell culture media was changed daily for five days. The induced multipotent placental cells produced by this method are termed iMPC1 cells (also referred herein, as iMPC1-D5 cells). As described herein, the cells may alternatively be exposed to RA+CHIR for 3 or 4 days. For example, iMPC1-D3 and iMPC1-D4, may also be produced wherein the cells are exposed to RA+CHIR for 3 and 4 days, respectively. Cell pellets were collected and lysed using QiaShredder columns (Qiagen). RNA was isolated using the RNeasy Mini Kit (Qiagen) as the manufacturer recommends, including incubation with DNase I (RNAse-free DNase Set, Qiagen). Collected RNA was quantified using a NanoDrop. Reverse transcription was performed on 1000 ng RNA using the Omni script RT Kit (Qiagen). RNA with Oligo-dT primer (Life Tech) was denatured for 5 minutes at 65° C. before the remaining elements were added and incubated at 37° C. for 1 hour. Quantitative real time PCR (qRT-PCR) was performed using iTaq Universal SYBR Green Supermix (Bio Rad) as the manufacturer recommends. Primers (Table 2) were added at 250 nM each (forward and reverse). Analysis was performed on a Bio Rad CFX Connect Real-Time PCR system. GAPDH was used as a reference gene, and error was propagated using the […] method. PCR was performed identically as above through the reverse transcription step to generate cDNA. GoTaq Master Mix (Promega) was used for PCR per the manufacturer's instructions. Primers (Table 2) were added at […] each. PCR products were visualized on a 2% agarose gel containing SYBR Safe (Thermo Fisher) after electrophoresis at […] for 100 minutes. Gels were imaged using a ChemiDoc Touch Gel/Blot Reader (Bio Rad).

IMR-90-4 hiPSCs [2] = test: Flow cytometry of CDX2, Oct-4, GATA3 and Keratin 7 in hiPSCs differentiated with RA and/or CHIR; details: 5 days in UM, 1 μM RA with or without 8 μM CHIR
Method: For differentiation, 70% confluent stem cells were rinsed with DPBS (Gibco) and pre-warmed Accutase was added to the wells. Cells were then placed at 37° C. for 5-7 minutes. Following incubation, cells were removed from the well with a p1000 pipette. The cells in Accutase solution were then added to a conical tube containing an equal volume of fresh media and spun down at 200×g for 5 minutes. The cells were then resuspended and seeded on Matrigel-coated plates at 6,000 cells/cm^2 in TeSR-E8 or mTeSR Plus with 5 μM ROCK inhibitor (Y-27632, Stem Cell Tech). Cells were maintained in E8 or mTeSR Plus for two more days, and then the medium was changed to unconditioned medium (UM): DMEM/F12 with 20% Knockout serum replacement, MEM non-essential amino acids (1×), GlutaMAX (lx, Life Tech), and 0.1 mM β-mercaptoethanol (Sigma), containing 1 μM retinoic acid (RA, Sigma) and […] (Tocris). RA and/or CHIR were excluded in control experiments (FIG. 1), as described. Cell culture media was changed daily for five days. The induced multipotent placental cells produced by this method are termed iMPC1 cells (also referred herein, as iMPC1-D5 cells). […]
Cells were rinsed 2× with PBS and then pre-warmed Accutase was added to the wells. […] Plots shown are representative of a single independent replicate, but medians and standard deviations were calculated from three independent replicates.

IMR-90-4 hiPSCs [3] = test: Immunostaining for pluripotency and lineage-specific markers after treatment; details: for Keratin 8 expression (immunostaining): UM+1 μM RA or UM+1 μM SU6656; for CDX2 protein expression (immunostaining): after 5 days incubation, 1 μM RA, 8 μM CHIR-99021, 1 μM SU6656 or RA+CHIR in UM or E6
Method: For differentiation, 70% confluent stem cells were rinsed with DPBS (Gibco) and pre-warmed Accutase was added to the wells. Cells were then placed at 37° C. for 5-7 minutes. Following incubation, cells were removed from the well with a p1000 pipette. The cells in Accutase solution were then added to a conical tube containing an equal volume of fresh media and spun down at 200×g for 5 minutes. The cells were then resuspended and seeded on Matrigel-coated plates at 6,000 cells/cm^2 in TeSR-E8 or mTeSR Plus with 5 μM ROCK inhibitor (Y-27632, Stem Cell Tech). Cells were maintained in E8 or mTeSR Plus for two more days, and then the medium was changed to unconditioned medium (UM): […] RA and/or CHIR were excluded in control experiments (FIG. 1), as described. Cell culture media was changed daily for five days. The induced multipotent placental cells produced by this method are termed iMPC1 cells (also referred herein, as iMPC1-D5 cells). As described herein, the cells may alternatively be exposed to RA+CHIR for 3 or 4 days. For example, iMPC1-D3 and iMPC1-D4, may also be produced wherein the cells are exposed to RA+CHIR for 3 and 4 days, respectively. For immunocytochemistry analysis, cells were rinsed 2× with PBS and then fixed for 10 minutes with 4% paraformaldehyde (PFA) at room temperature. […] Primary antibodies (Table 1A) were diluted into PBSGT and incubated on cells overnight at 4° C. Cells were washed 3× in PBST for 15 minutes, and then secondary antibodies (Table 1B) were diluted 1:500 in PBSGT and incubated on the cells for 1 hour at room temperature. Following a 10-minute PBS wash, cells were incubated with a DAPI solution for 10 minutes. Another 10-minute PBS wash was performed before the cells were imaged on an EVOS microscope.

Compound	CDX2 transcript level (qRT-PCR) (IMR-90-4 hiPSCs [1])	GATA3 transcript level (qRT-PCR) (IMR-90-4 hiPSCs [1])	KLF4 transcript level (qRT-PCR) (IMR-90-4 hiPSCs [1])	KRT7 transcript level (qRT-PCR) (IMR-90-4 hiPSCs [1])	CDX2 mRNA transcript level (PCR / RT-PCR) (IMR-90-4 hiPSCs [1])	interquartile range (IQR) of CDX2 expression (flow cytometry) (IMR-90-4 hiPSCs [2])	CDX2 median expression intensity (flow cytometry) (IMR-90-4 hiPSCs [2]; p<0.001)	Keratin 18 (KRT18) expression (immunostaining) (IMR-90-4 hiPSCs [3]; 1 μM RA in UM, 5 days)	Oct-4 expression (immunostaining) (IMR-90-4 hiPSCs [3]; 1 μM RA in UM, 5 days)	lowest concentration tested which resulted in CDX2 expression (IMR-90-4 hiPSCs [3]; 5 days in UM, 0.1, 1 and 10 μM RA tested)	Keratin 8 expression (immunostaining) (IMR-90-4 hiPSCs [3]; 5 days)	CDX2 protein expression (immunostaining) (IMR-90-4 hiPSCs [3])
CC1=C(/C=C/C(C)=C/C=C/C(C)=C/C(=O)O)C(C)(C)CCC1 [RA, retinoic acid]	upregulation	upregulation	upregulation	upregulation	heightened expression; also recorded: restricted to the RA condition	119	1348±42	gained expression	lost expression	1 µM	expressed in all conditions	gained expression; also recorded: restricted to the RA condition
Cc1cnc(-c2cnc(NCCNc3ccc(C#N)cn3)nc2-c2ccc(Cl)cc2Cl)[nH]1 [CHIR-99021, 6-[[2-[[4-(2,4-Dichlorophenyl)-5-(5-methyl-1H-imidazol-2-yl)-2-pyrimidinyl]amino]ethyl]amino]-3-pyridinecarbonitrile]	upregulating	compromised the expression	compromised the expression	compromised the expression	low levels of CDX2 expression							unable to induce CDX2 protein expression
CN(C)S(=O)(=O)c1ccc2c(c1)/C(=C/c1cc3c([nH]1)CCCC3)C(=O)N2 [SU6656]					restricted to the RA condition						expressed in all conditions	restricted to the RA condition
